Source: patent publication US11426426B2, “Pharmaceutical composition for preventing or treating inflammatory diseases, containing nitrogen monoxide-sensitive acrylamide-based polymer” (POSTECH ACADEMY-INDUSTRY FOUNDATION, priority 2018, dated 2022)

How the values were obtained:
red blood cells = test: Evaluation of hemolysis; type: cell-based, mice; conditions: 1 mg/mL in DPBS; 1×10^8 mouse red blood cells; 4 hours at 37° C.; absorbance at 450 nm
Experimental: In order to check whether the nitric oxide-sensitive hydrogel has in vivo stability after being administered into the body, first, red blood cells were separated from the blood collected from mice. A DPBS solution including 1 mg/mL Example 1, the nitric oxide-cleavable crosslinker (NOCCL), and acrylamide was introduced into 1×10^8 cells of the red blood cells thus prepared, and the mixture was thoroughly mixed. This solution was left to stand for 4 hours in a constant temperature tank at 37° C. Next, the solution was centrifuged, subsequently the supernatant was transferred onto a 96-well plate, and the absorbance at 450 nm was measured to calculate the degree of hemolysis.

[1] = Nitric oxide scavenging ability (Griess reagent)
Experimental: In order to check whether the nitric oxide-cleavable crosslinker (NOCCL) produced according to Production Example 1 can actually scavenge nitric oxide, Griess reagent was used, and 100 μM nitric oxide and 10 μM nitric oxide were treated to check the scavenging ability of the nitric oxide-cleavable crosslinker. At this time, N,N′-methylene bisacrylamide (BIS) was used as a comparative group, and water was used as a control group.

In the case of `C=CC(N)=O` [acrylamide], the degree of hemolysis (red blood cells) is reported as “up to 99%”.
In the case of `C=CC(=O)Nc1ccc(NC(=O)C=C)c(N)c1` [nitric oxide-cleavable crosslinker, N,N-(2-amino-1,4-phenylene) diacrylamide], the “nitric oxide scavenged as compared to the comparative group” value ([1]; 100 μM and 10 μM nitric oxide, comparative group BIS) is reported as ≥ 30%, the “nitric oxide scavenging ability” value ([1]; high concentration (100 μM) of nitric oxide) is reported as ≥ 50% and the degree of hemolysis (red blood cells) is reported as “did not cause hemolysis”.
